From BindingDB's records for doi:10.1007/s00213-002-1073-7 (WestfÄLische Wilhelms-Universit&Auml, 2002)
Values joined by “and” are separate entries in the source; they are usually repeats but may differ in a detail not shown here. Identical values can stand only once.

Key:
[1] = molecular target: D(2) dopamine receptor (Rattus norvegicus, UniProt P61169)
[2] = molecular target: Beta-1 adrenergic receptor (Rattus norvegicus, UniProt P18090)
[3] = molecular target: Muscarinic acetylcholine receptor M3 (Homo sapiens, UniProt P20309)
Sequence of Muscarinic acetylcholine receptor M3 (P20309 whole entry): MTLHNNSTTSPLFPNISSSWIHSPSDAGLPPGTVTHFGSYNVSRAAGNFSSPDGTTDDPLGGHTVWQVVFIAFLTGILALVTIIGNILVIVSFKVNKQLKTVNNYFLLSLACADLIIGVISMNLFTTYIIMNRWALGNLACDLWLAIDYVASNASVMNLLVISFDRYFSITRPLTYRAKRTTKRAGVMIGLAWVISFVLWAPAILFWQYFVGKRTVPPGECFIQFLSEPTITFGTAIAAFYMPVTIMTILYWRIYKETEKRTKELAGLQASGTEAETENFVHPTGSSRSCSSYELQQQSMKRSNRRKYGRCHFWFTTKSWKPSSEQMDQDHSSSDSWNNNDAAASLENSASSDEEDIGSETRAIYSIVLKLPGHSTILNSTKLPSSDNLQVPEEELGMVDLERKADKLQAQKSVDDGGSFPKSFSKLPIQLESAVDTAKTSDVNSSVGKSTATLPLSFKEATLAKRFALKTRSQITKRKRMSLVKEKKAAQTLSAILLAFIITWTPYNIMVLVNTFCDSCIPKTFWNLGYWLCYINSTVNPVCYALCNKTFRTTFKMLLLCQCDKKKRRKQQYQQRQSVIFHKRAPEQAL

[4] = molecular target: T1, Alpha-1B adrenergic receptor (Homo sapiens, UniProt P35368)
T1 sequence (P35368 whole entry): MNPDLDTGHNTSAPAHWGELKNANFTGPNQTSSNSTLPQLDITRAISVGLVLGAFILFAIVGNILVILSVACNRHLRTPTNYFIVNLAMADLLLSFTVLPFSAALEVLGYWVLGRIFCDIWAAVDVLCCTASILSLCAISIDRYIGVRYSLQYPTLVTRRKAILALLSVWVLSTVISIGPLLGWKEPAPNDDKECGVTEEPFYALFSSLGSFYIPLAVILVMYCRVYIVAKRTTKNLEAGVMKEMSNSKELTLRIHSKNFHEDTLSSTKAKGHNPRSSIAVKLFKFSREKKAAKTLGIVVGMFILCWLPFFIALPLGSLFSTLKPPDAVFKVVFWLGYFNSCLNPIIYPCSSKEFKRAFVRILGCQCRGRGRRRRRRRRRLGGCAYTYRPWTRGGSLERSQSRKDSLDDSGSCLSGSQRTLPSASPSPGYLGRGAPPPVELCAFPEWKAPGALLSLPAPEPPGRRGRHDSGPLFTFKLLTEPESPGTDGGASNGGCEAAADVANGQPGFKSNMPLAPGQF

[5] = molecular target: T2, 5-hydroxytryptamine receptor 3A (Homo sapiens, UniProt P46098)
T2 sequence (P46098 whole entry): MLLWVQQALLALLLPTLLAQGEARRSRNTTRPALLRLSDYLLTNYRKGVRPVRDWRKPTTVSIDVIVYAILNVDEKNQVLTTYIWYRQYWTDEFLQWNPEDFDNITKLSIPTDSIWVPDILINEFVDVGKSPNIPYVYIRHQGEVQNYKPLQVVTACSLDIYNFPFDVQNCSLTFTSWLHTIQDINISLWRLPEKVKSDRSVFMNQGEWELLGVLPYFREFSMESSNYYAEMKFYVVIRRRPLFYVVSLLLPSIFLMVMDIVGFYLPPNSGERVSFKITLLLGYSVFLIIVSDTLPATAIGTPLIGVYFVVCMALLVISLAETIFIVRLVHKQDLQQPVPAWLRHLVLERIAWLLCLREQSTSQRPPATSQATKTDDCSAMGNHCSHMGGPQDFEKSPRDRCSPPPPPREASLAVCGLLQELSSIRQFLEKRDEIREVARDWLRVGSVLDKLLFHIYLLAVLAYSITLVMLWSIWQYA

[6] = molecular target: T3, D(4) dopamine receptor (Rattus norvegicus, UniProt P30729)
T3 sequence (P30729 whole entry): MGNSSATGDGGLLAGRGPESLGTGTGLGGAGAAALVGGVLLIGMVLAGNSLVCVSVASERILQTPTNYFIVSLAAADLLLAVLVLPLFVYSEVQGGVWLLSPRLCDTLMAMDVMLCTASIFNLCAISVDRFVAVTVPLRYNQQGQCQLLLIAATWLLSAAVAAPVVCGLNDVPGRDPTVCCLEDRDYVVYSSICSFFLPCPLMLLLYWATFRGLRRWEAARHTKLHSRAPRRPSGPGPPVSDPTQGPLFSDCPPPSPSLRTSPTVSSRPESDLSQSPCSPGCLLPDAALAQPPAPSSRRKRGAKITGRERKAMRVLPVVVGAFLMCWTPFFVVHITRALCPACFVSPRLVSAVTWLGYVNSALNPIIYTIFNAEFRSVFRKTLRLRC

[7] = molecular target: Kappa-type opioid receptor (Homo sapiens, UniProt P41145)
Sequence of Kappa-type opioid receptor (P41145 whole entry): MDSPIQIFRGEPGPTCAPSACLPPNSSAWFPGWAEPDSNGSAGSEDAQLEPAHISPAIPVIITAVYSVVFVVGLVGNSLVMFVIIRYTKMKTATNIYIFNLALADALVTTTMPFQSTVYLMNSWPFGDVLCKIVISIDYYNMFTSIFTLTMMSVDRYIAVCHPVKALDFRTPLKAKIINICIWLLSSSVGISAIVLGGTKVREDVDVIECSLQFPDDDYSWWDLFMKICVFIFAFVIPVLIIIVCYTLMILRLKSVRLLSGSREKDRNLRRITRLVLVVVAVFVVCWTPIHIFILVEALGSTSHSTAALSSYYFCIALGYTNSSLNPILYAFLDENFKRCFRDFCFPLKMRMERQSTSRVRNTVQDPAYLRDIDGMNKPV

[8] = molecular target: D(3) dopamine receptor (Rattus norvegicus, UniProt P19020)
Sequence of D(3) dopamine receptor (P19020 whole entry): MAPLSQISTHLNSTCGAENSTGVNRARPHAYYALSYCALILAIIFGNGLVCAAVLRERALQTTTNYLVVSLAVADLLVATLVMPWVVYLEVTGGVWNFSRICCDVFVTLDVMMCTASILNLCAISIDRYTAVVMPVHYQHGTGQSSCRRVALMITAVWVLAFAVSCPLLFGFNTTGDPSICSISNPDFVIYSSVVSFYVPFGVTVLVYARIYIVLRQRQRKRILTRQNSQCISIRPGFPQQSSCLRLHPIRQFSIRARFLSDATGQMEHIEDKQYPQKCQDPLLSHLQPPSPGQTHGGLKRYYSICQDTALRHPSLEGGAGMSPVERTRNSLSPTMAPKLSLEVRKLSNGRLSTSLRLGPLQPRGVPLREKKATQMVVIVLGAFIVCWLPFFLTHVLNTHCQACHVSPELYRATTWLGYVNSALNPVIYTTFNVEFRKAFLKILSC

[9] = molecular target: T4, Muscarinic acetylcholine receptor M4 (Homo sapiens, UniProt P08173)
T4 sequence (P08173 whole entry): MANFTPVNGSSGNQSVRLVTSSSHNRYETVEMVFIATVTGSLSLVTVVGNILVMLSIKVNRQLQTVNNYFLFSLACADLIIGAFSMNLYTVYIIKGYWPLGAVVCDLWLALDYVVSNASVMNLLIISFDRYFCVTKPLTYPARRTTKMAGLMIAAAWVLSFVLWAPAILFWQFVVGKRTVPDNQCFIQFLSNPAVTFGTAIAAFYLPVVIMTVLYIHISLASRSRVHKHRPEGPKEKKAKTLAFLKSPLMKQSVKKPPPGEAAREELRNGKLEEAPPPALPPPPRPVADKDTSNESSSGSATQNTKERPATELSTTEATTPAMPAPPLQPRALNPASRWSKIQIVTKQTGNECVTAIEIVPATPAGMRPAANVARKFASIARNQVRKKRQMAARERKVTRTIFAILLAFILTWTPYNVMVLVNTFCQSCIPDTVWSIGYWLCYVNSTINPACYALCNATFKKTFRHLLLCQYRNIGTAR

[10] = molecular target: 5-hydroxytryptamine receptor 7 (Homo sapiens, UniProt P34969)
Sequence of 5-hydroxytryptamine receptor 7 (P34969 whole entry): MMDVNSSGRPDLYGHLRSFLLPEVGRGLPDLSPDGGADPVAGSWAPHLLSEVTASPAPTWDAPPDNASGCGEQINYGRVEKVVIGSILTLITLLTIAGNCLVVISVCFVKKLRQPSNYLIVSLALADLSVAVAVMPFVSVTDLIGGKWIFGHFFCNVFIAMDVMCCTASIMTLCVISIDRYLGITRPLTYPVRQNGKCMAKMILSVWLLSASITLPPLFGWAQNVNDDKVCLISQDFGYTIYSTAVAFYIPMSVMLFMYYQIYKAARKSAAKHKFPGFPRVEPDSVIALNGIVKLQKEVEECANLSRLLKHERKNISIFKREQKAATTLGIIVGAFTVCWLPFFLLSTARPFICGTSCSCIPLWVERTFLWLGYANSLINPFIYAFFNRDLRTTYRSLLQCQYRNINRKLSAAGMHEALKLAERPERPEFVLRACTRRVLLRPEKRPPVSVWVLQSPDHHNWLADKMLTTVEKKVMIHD

[11] = molecular target: T5, Alpha-2C adrenergic receptor (Homo sapiens, UniProt P18825)
T5 sequence (P18825 whole entry): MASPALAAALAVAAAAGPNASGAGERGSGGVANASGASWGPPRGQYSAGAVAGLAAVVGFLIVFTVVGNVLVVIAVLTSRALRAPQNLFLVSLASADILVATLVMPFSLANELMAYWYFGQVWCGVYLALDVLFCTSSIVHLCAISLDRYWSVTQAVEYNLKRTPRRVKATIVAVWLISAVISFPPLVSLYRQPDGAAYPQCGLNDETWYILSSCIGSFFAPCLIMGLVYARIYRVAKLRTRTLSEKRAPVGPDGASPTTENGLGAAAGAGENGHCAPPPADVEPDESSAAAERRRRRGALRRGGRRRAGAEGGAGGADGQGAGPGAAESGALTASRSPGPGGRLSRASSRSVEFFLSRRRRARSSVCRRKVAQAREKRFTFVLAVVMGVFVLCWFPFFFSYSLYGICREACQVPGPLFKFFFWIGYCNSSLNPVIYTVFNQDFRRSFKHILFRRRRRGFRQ

Sequence of D(2) dopamine receptor (P61169 whole entry): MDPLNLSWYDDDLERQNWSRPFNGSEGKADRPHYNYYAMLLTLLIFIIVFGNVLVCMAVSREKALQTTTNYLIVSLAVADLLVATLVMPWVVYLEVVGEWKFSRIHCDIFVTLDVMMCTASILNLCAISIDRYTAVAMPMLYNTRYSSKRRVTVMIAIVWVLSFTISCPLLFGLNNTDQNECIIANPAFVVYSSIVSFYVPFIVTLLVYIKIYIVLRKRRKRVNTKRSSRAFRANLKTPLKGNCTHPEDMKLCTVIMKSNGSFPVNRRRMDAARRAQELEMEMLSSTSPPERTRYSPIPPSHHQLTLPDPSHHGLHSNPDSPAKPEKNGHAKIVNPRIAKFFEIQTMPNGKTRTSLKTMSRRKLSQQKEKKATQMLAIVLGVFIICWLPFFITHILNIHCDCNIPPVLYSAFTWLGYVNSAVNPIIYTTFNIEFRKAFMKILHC
Sequence of Beta-1 adrenergic receptor (P18090 whole entry): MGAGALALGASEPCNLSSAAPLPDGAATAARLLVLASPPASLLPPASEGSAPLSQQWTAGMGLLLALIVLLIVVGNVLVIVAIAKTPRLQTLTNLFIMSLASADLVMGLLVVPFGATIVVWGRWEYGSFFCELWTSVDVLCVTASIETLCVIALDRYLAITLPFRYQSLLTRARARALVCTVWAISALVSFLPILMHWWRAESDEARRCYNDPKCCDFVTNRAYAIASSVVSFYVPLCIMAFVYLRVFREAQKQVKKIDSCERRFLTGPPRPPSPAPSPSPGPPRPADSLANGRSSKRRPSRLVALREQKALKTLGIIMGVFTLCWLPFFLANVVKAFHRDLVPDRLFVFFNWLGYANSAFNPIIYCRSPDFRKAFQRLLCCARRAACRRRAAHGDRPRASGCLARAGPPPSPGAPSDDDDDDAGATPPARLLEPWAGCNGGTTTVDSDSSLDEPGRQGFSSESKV

Row | SMILES | Ki [1] | Ki [2] | Ki [3] | Ki [4] | Ki [5] | Ki [6] | Ki [7] | Ki [8] | Ki [9] | Ki [10] | Ki [11]
1 | O=c1cc(O)cc2oc(-c3ccc(O)c(O)c3)c(OC3OC(CO)C(O)C(O)C3O)c(O)c1-2 (stereo unspecified) [NSC_5318390] | > 10 µM | > 10 µM | > 10 µM | > 10 µM | > 10 µM | > 10 µM | > 10 µM | > 10 µM | > 10 µM | > 10 µM | > 10 µM and 4.06 µM
2 | CC(C)=CCC[C@]1(C)[C@@H](CC=C(C)C)C[C@]2(CC=C(C)C)C(=O)C(CC=C(C)C)C(=O)[C@]1(C(=O)C(C)C)C2=O (stereo partly specified) | > 10 µM | > 10 µM | > 10 µM | > 10 µM | > 10 µM | > 10 µM | > 10 µM | > 10 µM | > 10 µM | > 10 µM | > 10 µM
3 | C[C@@H]1O[C@@H](Oc2c(-c3ccc(O)c(O)c3)oc3cc(O)cc(=O)c-3c2O)[C@H](O)[C@H](O)[C@H]1O | > 10 µM | > 10 µM | > 10 µM | > 10 µM | > 10 µM | > 10 µM | > 10 µM | > 10 µM | > 10 µM | > 10 µM | > 10 µM
4 | O=c1c(O)c(-c2ccc(O)c(O)c2)oc2cc(O)cc(O)c12 [2-(3,4-dihydroxyphenyl)-3,5,7-trihydroxy-chromone;hydrate] | > 10 µM | > 10 µM | > 10 µM | > 10 µM | > 10 µM | 7.85 µM | > 10 µM | > 10 µM | > 10 µM | > 10 µM | > 10 µM
5 | C[C@@H]1O[C@@H](OC[C@H]2O[C@@H](Oc3c(-c4ccc(O)c(O)c4)oc4cc(O)cc(O)c4c3=O)[C@H](O)[C@@H](O)[C@@H]2O)[C@H](O)[C@H](O)[C@H]1O [3-Rhamnoglucosylquercetin] | > 10 µM | > 10 µM | > 10 µM | > 10 µM | > 10 µM | > 10 µM | > 10 µM | > 10 µM | > 10 µM | > 10 µM | 9.64 µM
6 | O=c1cc(O)cc2oc(-c3ccc(O)c(-c4c(O)cc(O)c5c(=O)cc(-c6ccc(O)cc6)oc45)c3)cc(O)c1-2 | > 10 µM | > 10 µM | > 10 µM | > 10 µM | > 10 µM | > 10 µM | > 10 µM | 1.24 µM | > 10 µM | > 10 µM | > 10 µM
